Laboratory results from the OligoGym collection.
HELM strings list units from the 5' end as sugar, base in round brackets, then linkage (d deoxyribose, r ribose, m 2'-O-methyl, p phosphodiester). Strings are as the collection lists them; they lack the last nucleoside at the 3' end of the tested compound. [moe] = 2'-O-(2-methoxyethyl) (MOE); [sp] = phosphorothioate linkage; [m5C] = 5-methylcytosine

Biological target: UBE3A-ATS
Assay: mouse, dose not given
Settings: ASO

Substance	3 h FOB score [score 0-7]
RNA1{[moe](G)[sp].[moe]([m5C])p.[moe](T)p.[moe]([m5C])p.[moe](A)p.d(G)[sp].d(T)[sp].d(T)[sp].d(A)[sp].d(G)[sp].d(G)[sp].d(T)[sp].d(T)[sp].d(A)[sp].d(G)[sp].[moe](T)p.[moe](G)p.[moe]([m5C])[sp].[moe](A)}$$$$ (last 3' nucleoside missing)	3.8
RNA1{[moe](G)[sp].[moe]([m5C])p.[moe](T)p.[moe]([m5C])p.[moe](A)p.d(T)[sp].d([m5C])[sp].d(A)[sp].d([m5C])[sp].d(A)[sp].d(A)[sp].d([m5C])[sp].d(T)[sp].d(G)[sp].d(G)[sp].[moe](G)p.[moe](T)p.[moe](G)[sp].[moe](G)}$$$$ (last 3' nucleoside missing)	1
RNA1{[moe](G)[sp].[moe]([m5C])p.[moe](T)p.[moe]([m5C])p.d(A)[sp].d(G)[sp].d(T)[sp].d(T)[sp].d(A)[sp].d(G)[sp].d(G)[sp].d(T)[sp].d(T)[sp].d(A)[sp].[moe](G)p.[moe](T)p.[moe](G)p.[moe]([m5C])[sp].[moe](A)}$$$$ (last 3' nucleoside missing)	4
RNA1{[moe](G)[sp].[moe]([m5C])p.[moe]([m5C])p.[moe](A)[sp].d(G)[sp].d(G)[sp].d(T)[sp].d(G)[sp].d(T)[sp].d([m5C])[sp].d(T)[sp].d(T)[sp].[moe](A)p.[moe](T)p.[moe](A)p.[moe](T)[sp].[moe]([m5C])}$$$$ (last 3' nucleoside missing)	1
RNA1{[moe](G)[sp].[moe]([m5C])p.[moe]([m5C])p.[moe](A)p.[moe](G)[sp].d(G)[sp].d(T)[sp].d(G)[sp].d(T)[sp].d([m5C])[sp].d(T)[sp].d(T)[sp].d(A)[sp].[moe](T)p.[moe](A)p.[moe](T)[sp].[moe]([m5C])}$$$$ (last 3' nucleoside missing)	0
RNA1{[moe](G)[sp].[moe]([m5C])p.[moe]([m5C])p.[moe](A)p.[moe](G)p.[moe](G)[sp].d(T)[sp].d(G)[sp].d(T)[sp].d([m5C])[sp].d(T)[sp].d(T)[sp].d(A)[sp].d(T)[sp].[moe](A)p.[moe](T)[sp].[moe]([m5C])}$$$$ (last 3' nucleoside missing)	0
RNA1{[moe](G)[sp].[moe]([m5C])p.[moe]([m5C])p.[moe](A)p.[moe](G)p.[moe](G)p.d(T)[sp].d(G)[sp].d(T)[sp].d([m5C])[sp].d(T)[sp].d(T)[sp].d(A)[sp].d(T)[sp].d(A)[sp].d(T)[sp].[moe]([m5C])p.[moe](T)[sp].[moe](A)}$$$$ (last 3' nucleoside missing)	0
RNA1{[moe](G)[sp].[moe]([m5C])p.[moe]([m5C])p.[moe](A)p.[moe](G)p.d(G)[sp].d(T)[sp].d(G)[sp].d(T)[sp].d([m5C])[sp].d(T)[sp].d(T)[sp].d(A)[sp].d(T)[sp].d(A)[sp].[moe](T)p.[moe]([m5C])p.[moe](T)[sp].[moe](A)}$$$$ (last 3' nucleoside missing)	0
RNA1{[moe](G)[sp].[moe]([m5C])p.[moe]([m5C])p.[moe](A)p.d(G)[sp].d(G)[sp].d(T)[sp].d(G)[sp].d(T)[sp].d([m5C])[sp].d(T)[sp].d(T)[sp].d(A)[sp].d(T)[sp].[moe](A)p.[moe](T)p.[moe]([m5C])p.[moe](T)[sp].[moe](A)}$$$$ (last 3' nucleoside missing)	1
RNA1{[moe](G)[sp].[moe]([m5C])p.[moe]([m5C])p.[moe](T)p.[moe](G)p.d([m5C])[sp].d(T)[sp].d([m5C])[sp].d(A)[sp].d(A)[sp].d(A)[sp].d(T)[sp].d([m5C])[sp].d(T)[sp].d(G)[sp].[moe]([m5C])p.[moe](G)p.[moe](A)[sp].[moe](A)}$$$$ (last 3' nucleoside missing)	2
RNA1{[moe](G)[sp].[moe]([m5C])p.[moe]([m5C])p.[moe](T)p.[moe](T)p.d(T)[sp].d([m5C])[sp].d(T)[sp].d(A)[sp].d(T)[sp].d(T)[sp].d(T)[sp].d([m5C])[sp].d(A)[sp].d(G)[sp].[moe](A)p.[moe]([m5C])p.[moe]([m5C])[sp].[moe](G)}$$$$ (last 3' nucleoside missing)	1
RNA1{[moe](T)[sp].[moe](A)p.[moe](A)p.[moe](A)p.[moe](A)p.d(T)[sp].d([m5C])[sp].d([m5C])[sp].d(A)[sp].d(T)[sp].d(T)[sp].d(T)[sp].d(G)[sp].d(T)[sp].d([m5C])[sp].[moe]([m5C])p.[moe](A)p.[moe](G)[sp].[moe](T)}$$$$ (last 3' nucleoside missing)	3.3
RNA1{[moe](T)[sp].[moe](A)p.[moe](A)p.[moe](A)p.[moe](A)p.d([m5C])[sp].d(G)[sp].d([m5C])[sp].d(A)[sp].d(A)[sp].d(T)[sp].d(G)[sp].d(T)[sp].d(A)[sp].d(T)[sp].[moe]([m5C])p.[moe](A)p.[moe](G)[sp].[moe](G)}$$$$ (last 3' nucleoside missing)	1
RNA1{[moe](T)[sp].[moe](A)p.[moe](A)p.[moe](G)p.[moe](G)p.d(T)[sp].d([m5C])[sp].d(T)[sp].d(G)[sp].d(T)[sp].d(T)[sp].d(A)[sp].d(T)[sp].d(T)[sp].d([m5C])[sp].[moe](T)p.[moe]([m5C])p.[moe]([m5C])[sp].[moe]([m5C])}$$$$ (last 3' nucleoside missing)	0.8
RNA1{[moe](T)[sp].[moe](A)p.[moe](A)p.[moe](G)p.[moe](T)p.d(A)[sp].d(T)[sp].d(A)[sp].d(G)[sp].d(A)[sp].d(T)[sp].d(G)[sp].d([m5C])[sp].d([m5C])[sp].d(T)[sp].[moe]([m5C])p.[moe](T)p.[moe]([m5C])[sp].[moe]([m5C])}$$$$ (last 3' nucleoside missing)	3.7
RNA1{[moe](T)[sp].[moe](A)p.[moe](A)p.[moe]([m5C])p.[moe](T)p.d(G)[sp].d([m5C])[sp].d(T)[sp].d(T)[sp].d([m5C])[sp].d(A)[sp].d([m5C])[sp].d([m5C])[sp].d(A)[sp].d(T)[sp].[moe](T)p.[moe](T)p.[moe](T)[sp].[moe](G)}$$$$ (last 3' nucleoside missing)	0
RNA1{[moe](T)[sp].[moe](A)p.[moe](G)p.[moe](A)p.[moe](T)p.d(T)[sp].d(G)[sp].d(G)[sp].d(G)[sp].d([m5C])[sp].d(T)[sp].d(T)[sp].d(T)[sp].d(A)[sp].d(G)[sp].[moe](A)p.[moe](G)p.[moe](G)[sp].[moe](T)}$$$$ (last 3' nucleoside missing)	5
RNA1{[moe](T)[sp].[moe](A)p.[moe](G)p.[moe](G)p.[moe](G)p.d(T)[sp].d(G)[sp].d(G)[sp].d(T)[sp].d(T)[sp].d(G)[sp].d(G)[sp].d(T)[sp].d(T)[sp].d([m5C])[sp].[moe](A)p.[moe](A)p.[moe](A)[sp].[moe](A)}$$$$ (last 3' nucleoside missing)	5.7
RNA1{[moe](T)[sp].[moe](A)p.[moe](G)p.[moe](G)p.[moe](T)p.[moe]([m5C])p.d(A)[sp].d(A)[sp].d([m5C])[sp].d([m5C])[sp].d(A)[sp].d(A)[sp].d(T)[sp].d(T)[sp].d(T)[sp].d(G)[sp].[moe]([m5C])p.[moe](T)[sp].[moe](A)}$$$$ (last 3' nucleoside missing)	5
RNA1{[moe](T)[sp].[moe](A)p.[moe](G)p.[moe](G)p.[moe](T)p.d([m5C])[sp].d(A)[sp].d(A)[sp].d([m5C])[sp].d([m5C])[sp].d(A)[sp].d(A)[sp].d(T)[sp].d(T)[sp].d(T)[sp].[moe](G)p.[moe]([m5C])p.[moe](T)[sp].[moe](A)}$$$$ (last 3' nucleoside missing)	0
RNA1{[moe](T)[sp].[moe](A)p.[moe](G)p.[moe](G)p.[moe]([m5C])p.d(T)[sp].d(G)[sp].d(G)[sp].d(G)[sp].d([m5C])[sp].d([m5C])[sp].d(T)[sp].d([m5C])[sp].d(A)[sp].d(G)[sp].[moe]([m5C])p.[moe](G)p.[moe](T)[sp].[moe](A)}$$$$ (last 3' nucleoside missing)	3.5
RNA1{[moe](T)[sp].[moe](A)p.[moe](G)p.[moe](G)p.d(T)[sp].d([m5C])[sp].d(A)[sp].d(A)[sp].d([m5C])[sp].d([m5C])[sp].d(A)[sp].d(A)[sp].d(T)[sp].d(T)[sp].[moe](T)p.[moe](G)p.[moe]([m5C])p.[moe](T)[sp].[moe](A)}$$$$ (last 3' nucleoside missing)	0
RNA1{[moe](T)[sp].[moe](A)p.[moe](G)p.[moe](T)p.[moe](T)p.d(T)[sp].d([m5C])[sp].d(A)[sp].d([m5C])[sp].d([m5C])[sp].d(G)[sp].d(A)[sp].d(A)[sp].d(A)[sp].d(G)[sp].[moe](T)p.[moe](A)p.[moe]([m5C])[sp].[moe](A)}$$$$ (last 3' nucleoside missing)	2.5
RNA1{[moe](T)[sp].[moe](A)p.[moe](G)p.[moe](T)p.[moe]([m5C])p.d(T)[sp].d(A)[sp].d(A)[sp].d(G)[sp].d(G)[sp].d([m5C])[sp].d(A)[sp].d(G)[sp].d(T)[sp].d([m5C])[sp].[moe](A)p.[moe](G)p.[moe](G)[sp].[moe](G)}$$$$ (last 3' nucleoside missing)	6
RNA1{[moe](T)[sp].[moe](A)p.[moe](T)p.[moe](A)p.[moe](G)p.d(G)[sp].d(G)[sp].d(T)[sp].d(G)[sp].d(G)[sp].d(T)[sp].d(T)[sp].d(G)[sp].d(G)[sp].d(T)[sp].[moe](T)p.[moe]([m5C])p.[moe](A)[sp].[moe](A)}$$$$ (last 3' nucleoside missing)	6
RNA1{[moe](T)[sp].[moe](A)p.[moe](T)p.[moe](G)p.[moe](T)p.d(A)[sp].d(G)[sp].d([m5C])[sp].d(T)[sp].d([m5C])[sp].d(A)[sp].d(G)[sp].d([m5C])[sp].d(T)[sp].d([m5C])[sp].[moe](A)p.[moe](A)p.[moe](T)[sp].[moe](G)}$$$$ (last 3' nucleoside missing)	1
RNA1{[moe](T)[sp].[moe](A)p.[moe](T)p.[moe](T)p.[moe](G)p.[moe](G)p.d(T)[sp].d([m5C])[sp].d(A)[sp].d(T)[sp].d([m5C])[sp].d(T)[sp].d([m5C])[sp].d(G)[sp].d(G)[sp].d(G)[sp].[moe](T)p.[moe](A)[sp].[moe](T)}$$$$ (last 3' nucleoside missing)	4
